Laboratory results as given in publication PMC8321398, “The discovery of a novel series of compounds with single-dose efficacy against juvenile and adult Schistosoma species” (PLoS Neglected Tropical Diseases, 2021).
In brackets after ≈: the same amount, converted by molar mass. Like-named read-outs stand apart in the source and are kept apart here.

Tests used:
[1] = system: S. mansoni juvenile worms; settings: cited from earlier work
[2] = Metabolic stability in mouse hepatocytes; assay type: in vitro ADME; settings: hepatocytes (suspension), pH 7.4, 90 min incubation, read-out: Mouse hepatocyte % remaining at 90 min
Description: (§1) 100 μM compound stock solution was prepared from 5 μL of 4 mM stock in DMSO + 195 μL MeCN. Working solution (2 μM compound) was prepared using 10 μL of 100 μM stock + 490 μL buffer pH 7.4 (KHB supplemented with CaCl2, NaHCO3, HEPES, fructose, glycine; pH 7.4).
(§2) Working solution (25 μL, 2 μM) was added in duplicate to wells in a 0.5 mL per well, 96 well plate which was preincubated to reach 37°C. Hepatocyte suspension (25 μL) was added to each plate, and the plate incubated (37°C, 95% relative humidity with 5% CO2 supply) under gentle mixing (Thermomixer @300 rpm). After designated time periods, ice-cold MeCN (250 μL) was added with a suitable standard. For T = 0 min, ice-cold MeCN (250 μL) with suitable standard was added to the working solution (2 μM) and hepatocyte suspension (25 μL) added. The plates for each time point were shaken, sonicated for 5 mins and kept at 4°C until the final plate was processed. The plates were centrifuged at 4,000 rpm for 20 min, supernatant (110 μL) was mixed with water (110 μL) and the samples analysed using LC-MS/MS.

[3] = system: HepG2 cells; test: Cytotoxicity, HepG2 cells with MTT; assay type: cell-based, human; settings: Table 2; hepG2 cell line, 72 h incubation
Description: Activity against mammalian cells was determined using either of two standard assays. The first of these used MRC-5 cells with Alamar blue staining as previously described. The second used HepG2 cells monitored using 3-(4,5-dimethylthiazol-2-yl)-2,5-diphenyltetrazolium bromide (MTT) as previously described.

[4] = Kinetic solubility; assay type: physicochemical
Description: Table 4 in vitro, physicochemical and in vivo properties of compounds pictured in Fig 10. | column: Measured physicochemical properties / Kinetic solubility, pH 7.4 (uM); Measured physicochemical properties / Kinetic solubility, FaSSIF (uM); Measured physicochemical properties / Kinetic solubility, FeSSIF (uM)

[5] = system: Juvenile S. mansoni; test: In vitro juvenile (3 week old) S. mansoni worm assay; assay type: cell-based; settings: Schistosoma mansoni; Table 2; in vitro, 120 h incubation
Description: (§3) The Puerto Rican strain of S. mansoni was maintained in Biomphalaria glabrata and CD1 mice. Oncomelania hupensis (hupensis) infected with S. japonicum (Chinese strain) and Bulinus truncatus (truncatus) infected with Egyptian strain S. haematobium were obtained from BEI Resources, NIAID, NIH. Infection of mice for worm recovery was as previously described except that, whereas cercariae of S. mansoni and S. haematobium were obtained by shedding from infected snails under lights, cercariae of S. japonicum were obtained by gently crushing the snails. Furthermore, adult S. haematobium were recovered after 12 weeks following mouse infection.
(§4) In vitro efficacy was carried out as previously described. In brief, worms were recovered from infected mice by portal perfusion 3 weeks (for juveniles) or 6 weeks (for adults) post-infection using warm perfusion medium (Dulbecco’s Modified Eagle’s Medium [DMEM], 2mM L-glutamine, 100 Units/ml penicillin, 100μg/ml streptomycin, 20mM Hepes, 10 Units/ml heparin [Sigma, UK]). Worms were washed free of red blood cells using the perfusion medium, and finally suspended in complete medium (cDMEM: DMEM, 2mM L-glutamine, 100 Units/ml penicillin, 100μg/ml streptomycin, 10% FCS). The juvenile assays were carried out in 96-well plates, each well containing 6–8 worms in 200 μL cDMEM. The adult worm assay was in 24-well plates, each well containing 3 worm pairs in 1mL cDMEM. Both the juvenile and adult worm cultures were kept at 37° C, in an atmosphere of 5% CO2. Drug effects were determined on day 5 following drug treatment by assessing the viability of individual worms as described in [14].

[6] = system: S. japonicum adult; test: In vitro adult S. japonicum worm assay; assay type: cell-based
Description: as §3, §4

[7] = Metabolic stability in human hepatocytes; assay type: in vitro ADME; settings: hepatocytes (suspension), pH 7.4, 90 min incubation, read-out: Human hepatocyte % remaining at 90 min
Description: as §1, §2

[8] = system: S. mansoni juvenile worms; test: In vivo efficacy, mouse model of juvenile (21-day old) S. mansoni infection; settings: mouse, Juvenile infection, oral 50 mg/kg, formulation corn oil
Description: (§5) Prior to in vivo efficacy experiments, a single animal was given a dose of drug (using the same formulation) that was twice as large as that planned for use in the efficacy experiments and was observed periodically for adverse clinical signs for 24h by trained veterinarians. Adverse clinical signs checked include postural defect, vocalization, oculo-nasal discharge, hypersalivation, change in activity, abnormal gait, respiration and pulse, piloerection, loss of pupillary reflex, eyelid reflex, chromodacryorrhea, reaction to handling, tremor, convulsions, prostration, diarrhoea, cachexia, emaciation. […] In vivo efficacy was assessed in female CD1 mice using methods based on those previously described. Mice were infected subcutaneously with 150 cercariae. Test compounds were suspended in 7% Tween-80 / 3% Ethanol / double distilled water and drug dispersal was facilitated by vortexing and using a sonicating water bath (Formulation “Aqueous”). Alternatively, drugs were first dissolved in DMSO, then diluted with corn oil to give a 1:19 DMSO:corn oil solution/suspension of test compound (Formulation “Corn oil”). Dosing was by oral gavage. Mice in the negative control groups were given the drug suspension vehicle only. Positive controls for treatment of adult, day 42 old, infections were treated with PZQ and those for juvenile, day 21 old, infections with artemether, which unlike PZQ is effective against the juvenile worm infections in mice. During and following treatment, mice were closely observed for any ill effects by staff experienced in animal handling. This involved individuals who were blinded to the treatment groups. Effects they were trained to look for included hunching, immobility, piloerection, subdued behaviour, diarrhoea and loss of body condition. None were seen. Worms were recovered by portal perfusion with citrate saline 8–14 days post treatment and counted. Differences between groups relative to the non-drug treated controls were assessed for statistical significance by Student’s unpaired t-test using GraphPad Prism Software. P values are presented as follows:- ns–P > 0.05 (not significant), * P ≤ 0.05, ** P ≤ 0.01, *** P ≤ 0.001, **** P ≤ 0.0001.
(§6) For pharmacokinetic analysis during the in vivo efficacy experiments individual animals were only sampled once. Samples were taken from one animal in each experimental group at each of 1, 4, 8 h and samples from two animals in each group were taken at 24 h.

[9] = as above; settings: female, CD1, plasma; mouse, Juvenile infection, oral 50 mg/kg, formulation corn oil; read-out: Plasma conc @24 h (efficacy experiment)
Description: as §5, §6

[10] = Mouse pharmacokinetics; assay type: in vivo; settings: for Clobs / AUC(0-inf) / Vd / half-life: 0.5 mg/kg iv, in a mixture of 5 compounds; for AUC(0-inf) / Vd / bioavailability / half-life: male, Swiss albino, plasma; for Vd: read-out: Vss; for bioavailability: 2.5 mg/kg oral, mixture of 5 compounds, calculated values > 100% shown as 100; for half-life: iv, 0.5 mg/kg, sampled over 24 h;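 for all read-outs here: three mice per experiment, dosed in 10% DMSO with 50 mM Na2HPO4 buffer plus Tween-80, plasma levels quantified by LC-MS against a calibration line prepared in blank matrix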
[11] = system: Adult S. mansoni; test: In vitro adult S. mansoni worm assay; assay type: cell-based; settings: Schistosoma mansoni, 120 h incubation
Description: as §3, §4

[12] = Plasma protein binding in mouse plasma at 10 uM, equilibrium dialysis; assay type: in vitro ADME
Description: (§7) Each experiment was performed in duplicate for the compound being tested. A working solution of compound was prepared from 10 μL of 10 mM solution in DMSO + 190 μL 40:60 MeCN:Water. A Total solution was prepared from 12 μL of working solution + 588 μL plasma (compound conc: 10 μM, DMSO: 0.1%, ACN:0.76%). In an equilibrium dialysis chamber, Total solution (200 μL) was added to the plasma chamber and PBS pH 7.4 (350 μL) was added to the buffer chamber. The chamber was then incubated at 37°C for 6 h with constant shaking at 400 rpm (Thermomixer comfort, Eppendorf). Aliquots were removed from both plasma and buffer chambers and the following test samples prepared: Blank: blank Plasma (20 μL) + blank buffer (60 μL), Buffer: blank plasma (20 μL) + test buffer (60 μL), Plasma: test plasma (20 μL) + blank buffer (60 μL), Total: total sample (20 μL) + blank buffer (60 μL). Ice-cold acetonitrile (160 μL), containing a suitable standard was added to all samples, they were shaken vigorously and centrifuged at 4,000 rpm for 20 min at 15°C. Supernatant (110 μL) from each sample was diluted with water (110 μL) and the sample analysed by LC-MS/MS.
(§8) % Free = 100 × (AREA in buffer × dilution factor)/(AREA in Plasma × dilution factor)
(§9) % Recovery = 100 ×[(Avg AREA in buffer × dilution factor) + (Avg AREA in Plasma × dilution factor)] / (Avg AREA in Total × dilution factor)

[13] = Plasma protein binding in human plasma at 10 uM, equilibrium dialysis; assay type: in vitro ADME
Description: as §7, §8, §9

[14] = system: S. mansoni infections; parameters: method as in PMID 29126136; settings: cited from earlier work
[15] = system: S. japonicum; parameters: method as in PMID 28126024; settings: 40 mg/kg; cited from earlier work
[16] = system: S. haematobium; parameters: method as in PMID 28126024; settings: 40 mg/kg; cited from earlier work
[17] = system: S. mansoni; parameters: method as in PMID 28126024; settings: 40 mg/kg; cited from earlier work
[18] = Table 2, in vitro, read-out: Adult S. mansoni EC50

| SMILES | remaining at 1.5 h, 1 µM [2] [%] | EC50 [5] [nM] | remaining at 1.5 h, 1 µM [7] [%] | Clobs [10] [mL/min/kg] | AUC(0-inf) [10] [ng·h/mL] | Vd [10] [L/kg] | bioavailability [10] [%] | half-life [10] [h] | EC50 [11, 18] [nM] | Cytotox TC50 [3] | also measured |
| --- | --- | --- | --- | --- | --- | --- | --- | --- | --- | --- | --- |
| CO[C@H]1O[C@@H]2O[C@@]3(C)CC[C@H]4[C@H](C)CC[C@@H]([C@H]1C)[C@@]24OO3 [artemether] |  |  |  |  |  |  |  |  |  |  | efficacy against the juvenile worm infections in mice ([1]; mice): effective |
| CC(C)NCC1CCc2cc(CO)c([N+](=O)[O-])cc2N1 (stereo not drawn) [oxamniquine] |  |  |  |  |  |  |  |  |  |  | efficacy against S. mansoni infections [14]: effective |
| O=C(C1CCCCC1)N1CC(=O)N2CCc3ccccc3C2C1 (stereo not drawn) [PZQ, Praziquantel] |  |  |  |  |  |  |  |  |  |  | activity against the juvenile stages ([1]; both in vivo and in vitro): relatively ineffective; cure rate in children [15]: 95.3%; cure rate in children [16]: 73.6%; cure rate in children [17]: 76.4% |

Now from value to molecule, other results behind:

| remaining at 1.5 h, 1 µM [2] [%] | EC50 [5] [nM] | remaining at 1.5 h, 1 µM [7] [%] | Clobs [10] [mL/min/kg] | AUC(0-inf) [10] [ng·h/mL] | Vd [10] [L/kg] | bioavailability [10] [%] | half-life [10] [h] | EC50 [11, 18] [nM] | SMILES | Cytotox TC50 [3] | also measured |
| --- | --- | --- | --- | --- | --- | --- | --- | --- | --- | --- | --- |
| 78 | 2.7 | 45 | 31.3 | 300 | 5.6 | 57.1 | 4.5 | 2.3 | CC(C)c1cc(-c2cn3c(-c4ccc5[nH]ncc5c4F)c(C(F)(F)F)nc3cn2)ccc1F [LSHTM-3661] | 17,000 nM | solubility kinetic at 24 h ([4]; pH 7.4, read-out: Kinetic solubility, pH 7.4): 0.04 µM (≈ 0.0183 µg/mL); EC50 ([6]; Schistosoma japonicum, S. japonicum, 120 h incubation, read-out: Sj adult EC50): 24.8 nM; Potency ratio Sj/Sm ([6]; adult EC50 S. japonicum / S. mansoni): 10.9; Worms remaining [8]: 0%; concentration at 24 h [9]: 178 ng/mL; EC50 ([11]; Table 3, S. mansoni, read-out: Sm adult EC50): 2.3 nM |
| 31 | 11.1 | 79 | 24.5 | 300 | 5 | 100 | 4.6 | 9 | CC(C)Oc1cc(-c2cn3c(-c4ccc5[nH]ncc5c4F)c(C(F)(F)F)nc3cn2)ccc1F [LSHTM-3690] | 9,250 nM | solubility kinetic at 24 h ([4]; FaSSIF, pH 6.5, read-out: Kinetic solubility, FaSSIF): 188 µM (≈ 89 µg/mL); solubility kinetic at 24 h ([4]; FeSSIF, pH 5, read-out: Kinetic solubility, FeSSIF): 196 µM (≈ 92.8 µg/mL); Mouse plasma protein %binding [12]: 99.8775%; recovery at 6 h, 10 µM ([12]; mouse, mouse plasma, pH 7.4): 93.9%; Human plasma protein %binding [13]: 99.925%; recovery at 6 h, 10 µM ([13]; human, human plasma, pH 7.4): 89% |
|  | 60 |  | 6.33 | 1330 | 2.4 | 76 | 6.3 | 40 | CC(C)c1nn2cnc(-c3ccc(F)c(C(F)(F)F)c3)cc2c1-c1ccc2[nH]ncc2c1F [LSHTM-3644] |  |  |
